Data reported in patent US10183022B2, “Pharmaceutical composition for treating ulcerative colitis” (EA Pharma Co., Ltd., priority 2014, dated 2019).
“And” between values parts separate entries of the source, which are not always exact repeats. Equal values may be shown once.

Key:
Type in all cases: in vivo, human
[1] = tested on: ulcerative colitis patients in an active stage; assay: Clinical study, 960 mg orally 3 times a day for 8 weeks: subscore for stool frequency of Mayo score; design: Cases by subscore for stool frequency, figure in parentheses: unit not given here
Protocol: (§1) The compound of Example 1 or the compound of Comparative Example 1 was orally administered after meals 3 times a day. The number of the given tablets was 8 per administration (i.e., the amount of the compound (1) of Example 1 administered was 960 mg per administration). The administration period was 8 weeks. The compounds were administered until the timing after the breakfast on the day before the assessment day at Week 8.
[Investigation Timings: Weeks 0, 2, 4, and 8 (or Discontinuation Time)]
Based on the contents described in the symptom-recording diaries and so on, the investigators or sub-investigators investigated stool frequencies in 3 days immediately before each assessment day. Note that when the endoscopic examination on the large intestine was conducted, the investigation days were set to be the closest three days excluding the day of the endoscopic examination on the large intestine, the following day, and if a pre-treatment was performed for the endoscopic examination on the large intestine, the pre-treatment day.
The investigators or sub-investigators investigated the stool frequency per day before the primary disease appeared, which served as a “normal frequency.” An average value (rounded to the nearest whole number) of the stool frequencies of the investigated three days was compared with the “normal frequency,” and scored according to the following criteria.

[2] = tested on: ulcerative colitis patients in an active stage; assay: Clinical study, 960 mg orally 3 times a day for 8 weeks: Riley score (histopathological assessment of large intestinal mucosal biopsy)
Protocol: as §1
At the time of the endoscopic examination on the large intestine for the mucosal finding assessment, large intestinal mucosal tissues were sampled (biopsy). The biopsy for the histopathological assessment at Week 0 was conducted during the endoscopic examination on the large intestine for the eligibility determination. […] The sampled tissues were fixed with formalin to prepare histopathological specimens.
The histopathological assessment was scored by a histopathological assessment central adjudication committee according to the following criteria. A Riley score is a total score of the following items.

[3] = tested on: ulcerative colitis patients in an active stage; assay: Clinical study, 960 mg orally 3 times a day for 8 weeks: subscore for mucosal finding (large intestine endoscopic examination), mucosal remission rate; design: Cases by subscore for mucosal finding, figure in parentheses: unit not given here
Protocol: as §1
(3) Mucosal Finding (Large Intestine Endoscopic Examination) [Investigation Timings: Weeks 0 and 8 (or Discontinuation Time)]
The investigators or sub-investigators conducted the endoscopic examination on the large intestine, and checked the state of the large intestinal mucosa.
The endoscopic examination was conducted during a time from 7 days before Week 8 (or discontinuation time) until a medical interview at Week 8 (or discontinuation time). Note that the endoscopic examination on the large intestine at Week 8 (or discontinuation time) was conducted by the same physician at Week 0 when the situation allowed.
The assessment at the site served as the “subscore for mucosal finding” of the Mayo score. At Week 8 (or discontinuation time) also, the same site as that at Week 0 was assessed as the “subscore for mucosal finding” of the Mayo score.
A mucosal remission rate is a proportion of subjects each having a Mayo score with a subscore for mucosal finding of 1 point or less.

## COC(=O)[C@H](Cc1ccc(-n2c(=O)c3cc(N(C)C)ccc3n(C)c2=O)cc1)NC(=O)c1c(Cl)cccc1Cl [Example 1, methyl(2S)-2-(2,6-dichlorobenzamide)-3-{4-[6-(dimethylamino)-1-methyl-2,4-dioxo-1,4-dihydroquinazolin-3(2H)-yl]phenyl}propanoate]
[1]; Week 0, score 0
  Cases by subscore for stool frequency, figure in parentheses: 3.9
  Number of cases by subscore for stool frequency: 2
[1]; Week 0, score 1
  Cases by subscore for stool frequency, figure in parentheses: 17.6
  Number of cases by subscore for stool frequency: 9
[1]; Week 0, score 2
  Cases by subscore for stool frequency, figure in parentheses: 41.2
  Number of cases by subscore for stool frequency: 21
[1]; Week 0, score 3
  Cases by subscore for stool frequency, figure in parentheses: 37.3
  Number of cases by subscore for stool frequency: 19
[1]; Week 2, score 0
  Cases by subscore for stool frequency, figure in parentheses: 9.8
  Number of cases by subscore for stool frequency: 5
[1]; Week 2, score 1
  Cases by subscore for stool frequency, figure in parentheses: 25.5
  Number of cases by subscore for stool frequency: 13
[1]; Week 2, score 2
  Cases by subscore for stool frequency, figure in parentheses: 49.0
  Number of cases by subscore for stool frequency: 25
[1]; Week 2, score 3
  Cases by subscore for stool frequency, figure in parentheses: 15.7
  Number of cases by subscore for stool frequency: 8
[1]; Week 2 score 0, Week 0 score 0
  Number of cases, cross tabulation of subscore for stool frequency: 2
[1]; Week 2 score 0, Week 0 score 1
  Number of cases, cross tabulation of subscore for stool frequency: 1
[1]; Week 2 score 0, Week 0 score 2
  Number of cases, cross tabulation of subscore for stool frequency: 1
[1]; Week 2 score 0, Week 0 score 3
  Number of cases, cross tabulation of subscore for stool frequency: 1
[1]; Week 2 score 1, Week 0 score 0
  Number of cases, cross tabulation of subscore for stool frequency: 0
[1]; Week 2 score 1, Week 0 score 1
  Number of cases, cross tabulation of subscore for stool frequency: 6
[1]; Week 2 score 1, Week 0 score 2
  Number of cases, cross tabulation of subscore for stool frequency: 5
[1]; Week 2 score 1, Week 0 score 3
  Number of cases, cross tabulation of subscore for stool frequency: 2
[1]; Week 2 score 2, Week 0 score 0
  Number of cases, cross tabulation of subscore for stool frequency: 0
[1]; Week 2 score 2, Week 0 score 1
  Number of cases, cross tabulation of subscore for stool frequency: 2
[1]; Week 2 score 2, Week 0 score 2
  Number of cases, cross tabulation of subscore for stool frequency: 15
[1]; Week 2 score 2, Week 0 score 3
  Number of cases, cross tabulation of subscore for stool frequency: 8
[1]; Week 2 score 3, Week 0 score 0
  Number of cases, cross tabulation of subscore for stool frequency: 0
[1]; Week 2 score 3, Week 0 score 1
  Number of cases, cross tabulation of subscore for stool frequency: 0
[1]; Week 2 score 3, Week 0 score 2
  Number of cases, cross tabulation of subscore for stool frequency: 0
[1]; Week 2 score 3, Week 0 score 3
  Number of cases, cross tabulation of subscore for stool frequency: 8
[1]; Week 4, score 0
  Cases by subscore for stool frequency, figure in parentheses: 11.8
  Number of cases by subscore for stool frequency: 6
[1]; Week 4, score 1
  Cases by subscore for stool frequency, figure in parentheses: 47.1
  Number of cases by subscore for stool frequency: 24
[1]; Week 4, score 2
  Cases by subscore for stool frequency, figure in parentheses: 25.5
  Number of cases by subscore for stool frequency: 13
[1]; Week 4, score 3
  Cases by subscore for stool frequency, figure in parentheses: 15.7
  Number of cases by subscore for stool frequency: 8
[1]; Week 4 score 0, Week 0 score 0
  Number of cases, cross tabulation of subscore for stool frequency: 2
[1]; Week 4 score 0, Week 0 score 1
  Number of cases, cross tabulation of subscore for stool frequency: 1
[1]; Week 4 score 0, Week 0 score 2
  Number of cases, cross tabulation of subscore for stool frequency: 3
[1]; Week 4 score 0, Week 0 score 3
  Number of cases, cross tabulation of subscore for stool frequency: 0
[1]; Week 4 score 1, Week 0 score 0
  Number of cases, cross tabulation of subscore for stool frequency: 0
[1]; Week 4 score 1, Week 0 score 1
  Number of cases, cross tabulation of subscore for stool frequency: 7
[1]; Week 4 score 1, Week 0 score 2
  Number of cases, cross tabulation of subscore for stool frequency: 12
[1]; Week 4 score 1, Week 0 score 3
  Number of cases, cross tabulation of subscore for stool frequency: 5
[1]; Week 4 score 2, Week 0 score 0
  Number of cases, cross tabulation of subscore for stool frequency: 0
[1]; Week 4 score 2, Week 0 score 1
  Number of cases, cross tabulation of subscore for stool frequency: 1
[1]; Week 4 score 2, Week 0 score 2
  Number of cases, cross tabulation of subscore for stool frequency: 6
[1]; Week 4 score 2, Week 0 score 3
  Number of cases, cross tabulation of subscore for stool frequency: 6
[1]; Week 4 score 3, Week 0 score 0
  Number of cases, cross tabulation of subscore for stool frequency: 0
[1]; Week 4 score 3, Week 0 score 1
  Number of cases, cross tabulation of subscore for stool frequency: 0
[1]; Week 4 score 3, Week 0 score 2
  Number of cases, cross tabulation of subscore for stool frequency: 0
[1]; Week 4 score 3, Week 0 score 3
  Number of cases, cross tabulation of subscore for stool frequency: 8
[1]; Week 8, score 0
  Cases by subscore for stool frequency, figure in parentheses: 21.6
  Number of cases by subscore for stool frequency: 11
[1]; Week 8, score 1
  Cases by subscore for stool frequency, figure in parentheses: 45.1
  Number of cases by subscore for stool frequency: 23
[1]; Week 8, score 2
  Cases by subscore for stool frequency, figure in parentheses: 17.6
  Number of cases by subscore for stool frequency: 9
[1]; Week 8, score 3
  Cases by subscore for stool frequency, figure in parentheses: 15.7
  Number of cases by subscore for stool frequency: 8
[1]; Week 8 score 0, Week 0 score 0
  Number of cases, cross tabulation of subscore for stool frequency: 2
[1]; Week 8 score 0, Week 0 score 1
  Number of cases, cross tabulation of subscore for stool frequency: 3
[1]; Week 8 score 0, Week 0 score 2
  Number of cases, cross tabulation of subscore for stool frequency: 4
[1]; Week 8 score 0, Week 0 score 3
  Number of cases, cross tabulation of subscore for stool frequency: 2
[1]; Week 8 score 1, Week 0 score 0
  Number of cases, cross tabulation of subscore for stool frequency: 0
[1]; Week 8 score 1, Week 0 score 1
  Number of cases, cross tabulation of subscore for stool frequency: 5
[1]; Week 8 score 1, Week 0 score 2
  Number of cases, cross tabulation of subscore for stool frequency: 11
[1]; Week 8 score 1, Week 0 score 3
  Number of cases, cross tabulation of subscore for stool frequency: 7
[1]; Week 8 score 2, Week 0 score 0
  Number of cases, cross tabulation of subscore for stool frequency: 0
[1]; Week 8 score 2, Week 0 score 1
  Number of cases, cross tabulation of subscore for stool frequency: 1
[1]; Week 8 score 2, Week 0 score 2
  Number of cases, cross tabulation of subscore for stool frequency: 5
[1]; Week 8 score 2, Week 0 score 3
  Number of cases, cross tabulation of subscore for stool frequency: 3
[1]; Week 8 score 3, Week 0 score 0
  Number of cases, cross tabulation of subscore for stool frequency: 0
[1]; Week 8 score 3, Week 0 score 1
  Number of cases, cross tabulation of subscore for stool frequency: 0
[1]; Week 8 score 3, Week 0 score 2
  Number of cases, cross tabulation of subscore for stool frequency: 1
[1]; Week 8 score 3, Week 0 score 3
  Number of cases, cross tabulation of subscore for stool frequency: 7
[2]; Week 0
  Riley score, Lower quartile: 9.0
  Riley score, Maximum: 17
  Riley score, Mean: 11.8±2.8 and 11.8
  Riley score, Median: 12.0
  Riley score, Minimum: 6
  Riley score, Upper quartile: 14.0
[2]; Week 8
  Riley score, Lower quartile: 6.0
  Riley score, Maximum: 16
  Riley score, Mean: 8.6±3.4 and 8.6
  Riley score, Median: 9.0
  Riley score, Minimum: 3
  Riley score, Upper quartile: 11.0
  Riley score, difference in mean between Example 1 and Comparative Example 1: −1.96
[3]; Week 0, score 2
  Cases by subscore for mucosal finding, figure in parentheses: 88.2
  Number of cases by subscore for mucosal finding: 45
[3]; Week 0, score 3
  Cases by subscore for mucosal finding, figure in parentheses: 11.8
  Number of cases by subscore for mucosal finding: 6
[3]; Week 8
  Difference in mucosal remission rates, Example 1 vs Comparative Example 1 (placebo): 29.4%
[3]; Week 8, 51 cases analyzed
  Mucosal remission cases: 30
[3]; Week 8, all subjects
  Mucosal remission rate: 58.8%
[3]; Week 8, score 0
  Cases by subscore for mucosal finding, figure in parentheses: 17.0
  Number of cases by subscore for mucosal finding: 8
[3]; Week 8, score 1
  Cases by subscore for mucosal finding, figure in parentheses: 46.8
  Number of cases by subscore for mucosal finding: 22
[3]; Week 8, score 2
  Cases by subscore for mucosal finding, figure in parentheses: 34.0
  Number of cases by subscore for mucosal finding: 16
[3]; Week 8, score 3
  Cases by subscore for mucosal finding, figure in parentheses: 2.1
  Number of cases by subscore for mucosal finding: 1
[3]; Week 8 score 0, Week 0 score 2
  Number of cases, cross tabulation of subscore for mucosal finding: 7
[3]; Week 8 score 0, Week 0 score 3
  Number of cases, cross tabulation of subscore for mucosal finding: 1
[3]; Week 8 score 1, Week 0 score 2
  Number of cases, cross tabulation of subscore for mucosal finding: 22
[3]; Week 8 score 1, Week 0 score 3
  Number of cases, cross tabulation of subscore for mucosal finding: 0
[3]; Week 8 score 2, Week 0 score 2
  Number of cases, cross tabulation of subscore for mucosal finding: 13
[3]; Week 8 score 2, Week 0 score 3
  Number of cases, cross tabulation of subscore for mucosal finding: 3
[3]; Week 8 score 3, Week 0 score 2
  Number of cases, cross tabulation of subscore for mucosal finding: 0
[3]; Week 8 score 3, Week 0 score 3
  Number of cases, cross tabulation of subscore for mucosal finding: 1
[3]; body weight 50 kg or more and disease period less than 5 years (16/22 cases)
  Mucosal remission rate: 72.7%
